Data published in patent publication US20240148728A1, “NOVEL METHOD TO BLOCK IN[…] DEATH AND IL-1BETA SECRETION CAUSED BY […] UV I[…] GENETIC AND CHEMICAL INHIBITORS OF ZAKA AND THE NLRP1 INFLAMMASOME” (priority 2021, published 2024).
Entries after “also recorded” stand apart in the source; their conditions may differ.

Experiments:
NLRP1^DR = assay: NLRP1 PYD-DR1 / NLRP1^DR phosphorylation (GFP fusion, immunoblot, PhosTag SDS-PAGE) in N-TERT cells; assay type: cell-based, human
Excerpt: (§1) The following antibodies were used in this study: cleaved PARP1 (Abclonal, #WH162766), Cleaved CASP3 (Abclonal, #WH154646), Full length GSDMD-FL (Abcam, #ab210070), IL1β p17 specific (CST, #83186S), CARD8 (Abcam, CARD8-NT: ab19485, CARD8-CT: ab241186), DPP9 (Abcam, ab226334), c-Myc (Santa Cruz Biotechnology, #sc-40), HA tag (Santa Cruz Biotechnology, #sc-805), GAPDH (Santa Cruz Biotechnology, #sc-47724), ASC (Adipogen, #AL-177), CASP1 (Santa Cruz Biotechnology, #sc-622), 11_1B (R&D systems, #AF-201), FLAG (SigmaAldrich, #F3165), NLRP1 (R&D systems, #AF6788), IL18 (Abcam ab207324), cleaved GSDMD-NT (Asp275) (Cell Signaling Technology, #36425), RPL31 (Abclonal, #WH162766), CASP7 (Abcam, ab255818), CASP8 (Abcam, ab32397), cleaved CASP3 (Cell Signaling Technology, #9664). All horseradish peroxidase (HRP)— conjugated secondary antibodies were purchased from Jackson Immunoresearch (goat anti-mouse IgG: 115-035-166; goat anti-rabbit IgG: 111-035-144; and donkey anti-goat IgG: 705-005-147). Blue-Native PAGE was carried out using the Native-PAGE system (ThermoFisher) with 10-20 μg of total lysate. For SDS-PAGE using whole cell lysates, cells were resuspended in tris-buffered saline 1% NP-40 with protease inhibitors (Thermo Scientific, #78430). Protein concentration was determined using the Bradford assay (Thermo Scientific, #23200) and […] of protein loaded, a part from cleaved GSDMD-NT visualisation where […] of protein was used. All primary antibodies were used at 250 ng/ml. Visualisation of ASC oligomerization was previously described (Robinson et al., 2020). For analysis of IL1β and IL-18 cleavage in the media by immunoblotting, samples were concentrated using filtered centrifugation (Merck, Amicon Ultra, #UFC5003BIK). Protein samples were run using immunoblotting, and then visualized using a ChemiDoc Imaging system (Bio-Rad). PhosTag SDS-PAGE was carried out using homemade 10% SDS-PAGE gel, with addition of Phos-tag Acrylamide (Wako Chemicals, AAL-107) to a final concentration of 30 μM and manganese chloride(II) (Sigma-Aldrich, #63535) to 60 μM.
Cells were directly harvested using Laemmli buffer, lysed with an ultrasonicator, and loaded into the Phos-tag gel to run. Once the run was completed, the polyacrylamide gel was washed in transfer buffer with 10 mM EDTA twice, subsequently washed without EDTA twice, blotted onto 0.45 μm PVDF membranes (Bio-rad), blocked with 3% milk, and incubated with primary and corresponding secondary antibodies.

N-TERT cells = assay: Secreted IL1β / inflammasome activation in N-TERT cells; assay type: cell-based, human
Description: To measure secreted cytokine and chemokine levels a human IL1β enzyme linked immunosorbent assay (ELISA) kit (BD, #557953), human IL-18 ELISA kit (MBL, #7620) or an Immune Monitoring 65-Plex Human ProcartaPlex Panel (EPX650-10065-901) were used according to manufacturer's protocols. Further analysis of Luminex or ELISA profiling of samples was performed using heatmap and PCA analysis on Clustervis (biitdotcsdotutdotee/clustvis/) [Somani et al., Proceeding of SSIC (2019)].
as §1

[1] = test system: primary human keratinocytes; assay: Inflammasome-driven pyroptosis in primary human keratinocytes; assay type: cell-based; details: keratinocytes freshly isolated from a healthy donor
human DPP9 = biological target: T1, human DPP9 (Homo sapiens, UniProt Q86TI2); assay: DPP8/9 activity assay (in vitro proteolysis assay); assay type: biochemical; details: Gly-Pro-AMC hydrolysis
T1 construct: expressed in transfected cells; host or cells: 293T
Description: 293T cells were transfected with vector or wild-type DPP9. DPP9-transfected cells were treated with VbP, Anisomycin (ANS) or Harringtonine (HTN). Cells were lysed in PBS 1% Tween-20, 48 h after transfection and treatments. 0.3 μg of total lysate was then incubated with 0.1 μM uGly-Pro-AMC fluorescence substrate. AMC fluorescence was measured after 30 mins at 25° C. in a 50 μl reaction every minute on a spectrometer and the rate of Gly-Pro-AMC hydrolysis per minute calculated.

[2] = test system: primary bronchial epithelial cells (NHBEs); assay: Inflammasome activation and pyroptosis in primary bronchial epithelial cells; assay type: cell-based, human; details: ANS 1 μM
[3] = test system: immortalized keratinocytes (N-TERT); assay: Pyroptosis / apoptosis in N-TERT keratinocytes (morphology, ASC-GFP, PI, Annexin V, immunoblot); assay type: cell-based, human
Excerpt: as §1
N-TERT-ASC-GFP cells were seeded at a cell density of 3000 cells/well of a 96 black well plate (PerkinElmer, CellCarrier-96 Ultra, #6055300). The next morning cells were treated with chemicals for 6 h or treated in the evening for 24 h before staining. 1 hour before observing the cells on the microscope the cells were stained with 1 μg/ml dilution of propidium iodide (PI, Abcam #ab14083), 10 ng/ml dilution of Hoechst 33342 (Life Technologies, #H21492) or stained with Annexin V Alexa Flour 647 (Life technologies, #A23204) according to the manufacturer's protocol. Stained cells were then imaged on a high content screening microscope (Perkin Elmer Operetta CLS imaging system). Images were then stored and analyzed using the Harmony software (Version 6). Fluorescent and brightfield images acquired on the Operetta high content screening microscope were further analyzed using a scoring system to categorize the percentages of live, apoptotic and pyroptotic cells. For 3 fields of view per treatment the number of live cells per field was counted from the merge of the brightfield and ASC-GFP channels. Only cells which contained ASC-GFP throughout the cytoplasm and nucleus were classed as “live”. The number of pyroptotic cells was calculated using the merge of the brightfield and ASC-GFP channels. Only the cells with GFP specks were classed as “pyroptotic”. The number of apoptotic cells was calculated using the merge of the brightfield, ASC-GFP and Annexin V channels. Cells that were stained positive for Annexin V but without a GFP speck were classified as “apoptotic”. Images of ASC-GFP specks were acquired in 3 random fields in 4′,6-diaminidino-2-phenylindole (DAPI, 358 nm/461) and GFP (469 nm/525 nm) channels using the EVOS microscope (FL Auto M5000, #AM F5000) according to the manufacturer's protocol. […]

T1 sequence (Q86TI2 whole entry): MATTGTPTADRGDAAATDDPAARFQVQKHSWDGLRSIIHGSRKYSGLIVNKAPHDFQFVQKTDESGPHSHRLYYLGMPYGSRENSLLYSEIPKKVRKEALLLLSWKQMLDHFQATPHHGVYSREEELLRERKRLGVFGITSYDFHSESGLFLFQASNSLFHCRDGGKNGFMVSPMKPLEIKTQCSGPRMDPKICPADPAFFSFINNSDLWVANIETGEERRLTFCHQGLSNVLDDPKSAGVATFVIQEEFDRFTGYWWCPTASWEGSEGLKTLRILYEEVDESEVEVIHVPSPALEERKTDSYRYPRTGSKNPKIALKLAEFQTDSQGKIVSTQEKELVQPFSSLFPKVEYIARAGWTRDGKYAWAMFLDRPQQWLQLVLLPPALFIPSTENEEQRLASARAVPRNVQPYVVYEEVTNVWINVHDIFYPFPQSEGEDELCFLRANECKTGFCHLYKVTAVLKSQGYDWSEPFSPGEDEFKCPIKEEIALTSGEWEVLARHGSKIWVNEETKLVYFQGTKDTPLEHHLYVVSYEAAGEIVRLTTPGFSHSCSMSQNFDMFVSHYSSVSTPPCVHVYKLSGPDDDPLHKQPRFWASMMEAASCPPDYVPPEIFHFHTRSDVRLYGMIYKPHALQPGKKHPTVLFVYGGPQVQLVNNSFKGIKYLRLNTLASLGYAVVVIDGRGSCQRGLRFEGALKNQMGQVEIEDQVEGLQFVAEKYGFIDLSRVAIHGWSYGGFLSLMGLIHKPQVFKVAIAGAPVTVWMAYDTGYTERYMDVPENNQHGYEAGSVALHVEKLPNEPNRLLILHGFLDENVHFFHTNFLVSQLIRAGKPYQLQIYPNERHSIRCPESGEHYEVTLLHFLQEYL

Compound: COc1ccc(C[C@H]2NC[C@H](O)[C@H]2OC(C)=O)cc1 [ANS, Anisomycin]
- NLRP1^DR hyperphosphorylation (NLRP1^DR; NLRP1DR-GFP in N-TERT cells, PhosTag SDS-PAGE): became further phosphorylated
- band shift (phosphorylation) of PYD-DR1-GFP (NLRP1^DR; NLRP1 KO N-TERT cells expressing GFP-tagged PYD-DR1): band shift in PYD-DR1-GFP
- IL1β secretion and pyroptotic death in ZAKα KO cells (N-TERT cells; ZAKα KO N-TERT cells): completely resistant
- IL1β secretion at high concentration versus lower doses (N-TERT cells; ultra-high doses of ANS): significant decrease in IL1β secretion as compared to lower doses
- inflammasome-driven pyroptosis [1]: induce inflammasome-driven pyroptosis was also confirmed
- catalytic activity of human DPP9 (human DPP9): had no effect on the catalytic activity of human DPP9
- canonical inflammasome activation and pyroptosis [2]: underwent canonical inflammasome activation and pyroptosis
- mode of cell death (apoptosis / pyroptosis) ([3]; Annexin V staining and PI inclusion, immunoblot markers): caused both apoptosis and pyroptosis; also recorded: activate both forms of cell death
- mode of cell death in NLRP1 KO cells ([3]; NLRP1 KO N-TERT, Annexin V and PI staining): died exclusively through apoptosis
- apoptotic cell death (cleaved caspase-3 and PARP-1) ([3]; immunoblot): activated classical apoptotic cell death
- biochemical hallmarks of inflammasome activation (ASC polymerization, GSDMD-NT, IL1β p17 in media) ([3]; immunoblot): displayed cardinal biochemical hallmarks of inflammasome activation
- morphological hallmarks of inflammasome activation and pyroptotic cell death ([3]; membrane ballooning, ASC-GFP specks, PI uptake): rapidly induced the morphological hallmarks of inflammasome activation and pyroptotic cell death
- fraction of pyroptotic cells ([3]; single cell level, compared with VbP): comparable to that induced by VbP
